# Target: EGFR (L858R/T790M/C797S) kinase (Homo sapiens, UniProt P00533, C797S/L858R/T790M)
# Assay: Kinase activity assay against EGFR(L858R/T790M/C797S) kinase at ATP Km concentration (33P-ATP, filter-binding)
# Format: biochemical
# Conditions: 10 concentrations, 20 min preincubation, 2 h reaction at room temperature
# Protocol: The biological activity screening of the compounds will be determined repeatedly at 10 concentrations.
# Each sample was prepared into a solution with a concentration of 10 mM. […]
# a. Preparing basic buffer solution and quenching buffer solution for experimental kinase […]
# b. Preparing compounds for experimental kinase
# The test compound was dissolved in 100% dimethyl sulfoxide to a specific concentration. Integra Viaflo Assist was used to assist DMSO for (continuous) dilution.
# Kinase was added to the newly prepared basic reaction buffer
# Adding any desired cofactors to the substrate solution.
# Acoustic technology (Echo 550; Nanoliter range) was used to feed the compounds in 100% of dimethyl sulfoxide into the kinase reaction mixture and incubated at room temperature for 20 minutes.
# 33P-ATP (specific activity 10 Ci/l) was added to the reaction mixture to start the reaction.
# Incubated at room temperature for 2 hours
# Radioactivity was detected by filter-binding method.
# Kinase activity data was expressed as the percentage of remaining kinase activity in the test sample compared to the vehicle (dimethyl sulfoxide) reaction. Prism ([…] software) was used to obtain IC50 value and curve-fitting.
# Sequence of EGFR (L858R/T790M/C797S) kinase (P00533 25-1210 T790M/C797S/L858R): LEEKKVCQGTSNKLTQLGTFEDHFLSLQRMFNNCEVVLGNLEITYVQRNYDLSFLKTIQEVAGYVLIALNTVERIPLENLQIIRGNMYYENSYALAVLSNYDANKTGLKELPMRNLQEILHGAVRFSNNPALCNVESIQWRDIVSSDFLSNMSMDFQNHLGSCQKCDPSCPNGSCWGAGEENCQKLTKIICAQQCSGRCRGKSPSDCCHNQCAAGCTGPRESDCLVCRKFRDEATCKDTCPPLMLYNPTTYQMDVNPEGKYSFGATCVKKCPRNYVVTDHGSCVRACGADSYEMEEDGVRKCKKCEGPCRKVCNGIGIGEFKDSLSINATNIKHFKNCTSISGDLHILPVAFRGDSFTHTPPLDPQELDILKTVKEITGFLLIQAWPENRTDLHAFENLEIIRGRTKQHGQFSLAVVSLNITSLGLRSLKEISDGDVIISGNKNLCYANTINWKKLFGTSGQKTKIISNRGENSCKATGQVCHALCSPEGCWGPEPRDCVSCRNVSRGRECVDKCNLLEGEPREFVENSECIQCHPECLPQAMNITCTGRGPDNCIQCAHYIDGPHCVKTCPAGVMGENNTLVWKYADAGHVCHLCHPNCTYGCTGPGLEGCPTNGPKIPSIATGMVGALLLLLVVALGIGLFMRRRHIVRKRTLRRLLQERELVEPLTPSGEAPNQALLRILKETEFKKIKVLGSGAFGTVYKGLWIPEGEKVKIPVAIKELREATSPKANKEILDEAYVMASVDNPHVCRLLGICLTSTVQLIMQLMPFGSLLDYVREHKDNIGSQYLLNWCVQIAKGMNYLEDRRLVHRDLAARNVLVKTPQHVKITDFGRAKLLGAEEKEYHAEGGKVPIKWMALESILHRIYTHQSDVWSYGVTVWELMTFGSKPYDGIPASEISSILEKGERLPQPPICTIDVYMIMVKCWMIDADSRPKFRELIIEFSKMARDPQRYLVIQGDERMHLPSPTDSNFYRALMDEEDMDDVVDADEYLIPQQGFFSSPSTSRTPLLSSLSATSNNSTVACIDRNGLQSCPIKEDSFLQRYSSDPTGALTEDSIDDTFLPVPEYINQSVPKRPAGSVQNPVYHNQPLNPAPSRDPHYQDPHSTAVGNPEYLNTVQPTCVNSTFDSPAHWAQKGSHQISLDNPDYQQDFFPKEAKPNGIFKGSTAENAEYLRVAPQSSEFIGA
row,IC50 [nM],Compound
1,12.4,[2H]C(F)(F)Oc1cc(N2C[C@H]3CN(C)C[C@H]3C2)ccc1Nc1ncc(Cl)c(Nc2ccccc2P(C)(C)=O)n1 [Compound C1]
2,16.6,[2H]C(F)(F)Oc1cc(N2CC3CC(C2)N3)ccc1Nc1ncc(Cl)c(Nc2ccccc2P(C)(C)=O)n1 [Compound C2]
3,130,[2H]C(F)(F)Oc1cc(N2CC3CC(C2)N3C)ccc1Nc1ncc(Cl)c(Nc2ccccc2P(C)(C)=O)n1 [Compound C3]
4,107,[2H]C(F)(F)Oc1cc(N2C[C@H]3CNC[C@H]3C2)ccc1Nc1ncc(Cl)c(Nc2ccccc2P(C)(C)=O)n1 [Compound C4]
5,321,[2H]C(F)(F)Oc1cc(N2C3CC2CN(C)C3)ccc1Nc1ncc(Cl)c(Nc2ccccc2P(C)(C)=O)n1 [Compound C5]
6,178,[2H]C(F)(F)Oc1cc(N2CC3CCCNC3C2)ccc1Nc1ncc(Cl)c(Nc2ccccc2P(C)(C)=O)n1 (centres unmarked) [Compound C6]
7,22.3,[2H]C(F)(F)Oc1cc(-n2cc3c(n2)CNC3)ccc1Nc1ncc(Cl)c(Nc2ccccc2P(C)(C)=O)n1 [Compound C7]
8,181,[2H]C(F)(F)Oc1cc(-n2cc3c(n2)CN(C)C3)c(C)cc1Nc1ncc(Cl)c(Nc2ccccc2P(C)(C)=O)n1 [Compound C9]
9,1850,[2H]C(F)(F)Oc1cc(-n2ncc3c2CN(C)C3)c(C)cc1Nc1ncc(Cl)c(Nc2ccccc2P(C)(C)=O)n1 [Compound C10]
10,17.6,[2H]C(F)(F)Oc1cc(N2CC3CCN(C)C3C2)ccc1Nc1ncc(Cl)c(Nc2ccccc2P(C)(C)=O)n1 (centres unmarked) [Compound C11]
11,74.7,[2H]C(F)(F)Oc1cc(N2CC3CCNC3C2)ccc1Nc1ncc(Cl)c(Nc2ccccc2P(C)(C)=O)n1 (centres unmarked) [Compound C12]
12,16.6,[2H]C(F)(F)Oc1cc(N2C3CNCC2C3)ccc1Nc1ncc(Cl)c(Nc2ccccc2P(C)(C)=O)n1 [Compound C13]
13,13.7,[2H]C(F)(F)Oc1cc(-n2cc3c(n2)CN(C)C3)ccc1Nc1ncc(Cl)c(Nc2ccccc2P(C)(C)=O)n1 [Compound C14]
14,69.6,[2H]C(F)(F)Oc1cc(N2C[C@H]3COC[C@H]3C2)ccc1Nc1ncc(Cl)c(Nc2ccccc2P(C)(C)=O)n1 [Compound C20]
15,0.3,CCc1cc(Nc2ncc(Br)c(Nc3ccc4nccnc4c3P(C)(C)=O)n2)c(OC)cc1N1C[C@H]2CN(C)C[C@H]2C1 [Compound C22]
16,20.5,COc1cc2c(cc1Nc1ncc(Cl)c(Nc3ccccc3P(C)(C)=O)n1)CCCN2CCN1CCN(C)CC1 [Compound C23]
17,19.5,COc1cc2c(cc1Nc1ncc(Cl)c(Nc3ccccc3P(C)(C)=O)n1)CCCN2C(=O)CN1CCN(C)CC1 [Compound C24]
18,803,COc1cc2c(cc1Nc1ncc(Cl)c(Nc3ccccc3P(C)(C)=O)n1)CCCN2CC(=O)N1CCN(C)CC1 [Compound C25]
19,204,CCc1cc(Nc2nc(Nc3ccc4nccnc4c3P(C)(C)=O)c3ccccc3n2)c(OC)cc1N1C[C@H]2CN(C)C[C@H]2C1 [Compound C27]
20,803,CCc1cc(Nc2nc(Nc3ccc4nccnc4c3P(C)(C)=O)c3cccnc3n2)c(OC)cc1N1C[C@H]2CN(C)C[C@H]2C1 [Compound C28]

# Reference: patent US20230026840A1, “COMPOUND USED AS EGFR KINASE INHIBITOR AND USE THEREOF” (TYK MEDICINES, INC., priority 2019, published 2023)
